In article PMC6952396, “Structural basis for itraconazole-mediated NPC1 inhibition” (Nature Communications, 2020):
Where “and” joins values, the source holds several entries; their conditions need not be identical. Equal values may be shown once.

Target: T1, NPC1 (Cricetulus griseus, UniProt Q9JLG3)
T1 construct: CHO-7 cells in the medium are deprived of cholesterol to induce the LDL receptors biosynthesis; endogenous in cells; host or cells: CHO-7 cells
T1 sequence (Q9JLG3 23-1277): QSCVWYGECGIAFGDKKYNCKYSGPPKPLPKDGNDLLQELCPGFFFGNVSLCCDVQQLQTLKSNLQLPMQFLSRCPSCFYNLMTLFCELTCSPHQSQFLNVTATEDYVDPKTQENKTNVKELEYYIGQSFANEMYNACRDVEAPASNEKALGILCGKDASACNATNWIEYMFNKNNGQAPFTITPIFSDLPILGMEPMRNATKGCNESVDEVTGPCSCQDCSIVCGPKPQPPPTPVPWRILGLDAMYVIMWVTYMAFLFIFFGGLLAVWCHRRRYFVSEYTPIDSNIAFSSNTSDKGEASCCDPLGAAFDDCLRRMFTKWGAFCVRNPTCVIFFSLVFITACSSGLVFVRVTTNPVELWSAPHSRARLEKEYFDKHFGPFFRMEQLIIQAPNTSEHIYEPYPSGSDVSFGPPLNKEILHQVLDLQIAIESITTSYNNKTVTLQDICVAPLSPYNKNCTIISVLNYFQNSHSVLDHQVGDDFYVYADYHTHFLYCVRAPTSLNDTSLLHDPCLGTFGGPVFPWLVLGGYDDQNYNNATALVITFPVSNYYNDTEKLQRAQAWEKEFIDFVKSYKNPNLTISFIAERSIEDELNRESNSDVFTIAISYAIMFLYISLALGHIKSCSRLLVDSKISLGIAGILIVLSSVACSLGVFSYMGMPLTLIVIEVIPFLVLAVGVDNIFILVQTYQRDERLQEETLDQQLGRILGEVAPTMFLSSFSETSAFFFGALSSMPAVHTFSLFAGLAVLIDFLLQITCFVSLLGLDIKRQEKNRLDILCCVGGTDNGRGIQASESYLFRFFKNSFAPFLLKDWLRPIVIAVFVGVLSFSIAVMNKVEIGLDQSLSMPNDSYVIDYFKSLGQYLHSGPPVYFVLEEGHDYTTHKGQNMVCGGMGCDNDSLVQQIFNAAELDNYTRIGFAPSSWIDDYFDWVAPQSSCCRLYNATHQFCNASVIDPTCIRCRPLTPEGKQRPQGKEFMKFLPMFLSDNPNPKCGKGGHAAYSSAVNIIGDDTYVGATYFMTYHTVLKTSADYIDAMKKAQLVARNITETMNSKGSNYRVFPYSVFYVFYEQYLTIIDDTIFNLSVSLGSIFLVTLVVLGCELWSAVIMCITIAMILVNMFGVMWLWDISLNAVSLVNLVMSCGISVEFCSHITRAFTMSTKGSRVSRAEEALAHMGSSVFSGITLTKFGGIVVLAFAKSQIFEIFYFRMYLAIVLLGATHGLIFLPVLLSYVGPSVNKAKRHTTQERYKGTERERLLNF
Assay: Cholesterol re-esterification (ACAT) assay measuring NPC1-mediated export of cholesterol from lysosomes in CHO-7 cells
Type: cell-based
Details: for cholesteryl [14C] oleate formed, Repeat 1 / cholesteryl [14C] oleate formed, Repeat 2: Fig. 2 source data; for cholesteryl [14C] oleate formed, Repeat 3 / cholesteryl [14C] oleate formed, Repeat 4: Supplementary Fig. 3 source data
Outline: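 CHO-7 cells were sterol-deprived (5% LPDS, 50 µM compactin, 50 µM mevalonate), then given compounds with 10% FCS lipoproteins for 4 h at 37 °C and pulse-labeled 2 h with 0.1 mM [14C]oleate. Lipids were extracted, separated by TLC and cholesteryl [14C]oleate quantified by scintillation counting.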

With CCC(C)n1ncn(-c2ccc(N3CCN(c4ccc(OCC5COC(Cn6cncn6)(c6ccc(Cl)cc6Cl)O5)cc4)CC3)cc2)c1=O (stereo not drawn) [Itraconazole mixture, itraconazole] the “cholesteryl [14C] oleate formed, Repeat 1” value (“cholesteryl … Repeat 1” for short) (0.01 uM compound) was 4.018 nanomoles formed per hour per milligram cell protein, the “cholesteryl [14C] oleate formed, Repeat 2” value (“cholesteryl … Repeat 2” for short) (0.01 uM compound) was 4.2448 nanomoles formed per hour per milligram cell protein and the “cholesteryl [14C] oleate formed, Repeat 3” value (“cholesteryl … Repeat 3” for short) (0.01 uM compound) was 4.59 nanomoles formed per hour per milligram cell protein. The “cholesteryl [14C] oleate formed, Repeat 4” value (“cholesteryl … Repeat 4” for short) (0.01 uM compound) was 4.561 nanomoles formed per hour per milligram cell protein, the “cholesteryl … Repeat 1” value (0.03 uM compound) was 5.241 nanomoles formed per hour per milligram cell protein and the “cholesteryl … Repeat 2” value (0.03 uM compound) was 3.3234 nanomoles formed per hour per milligram cell protein. For the same molecule, the “cholesteryl … Repeat 3” value (0.03 uM compound) was 3.807 nanomoles formed per hour per milligram cell protein, the “cholesteryl … Repeat 4” value (0.03 uM compound) was 5.72 nanomoles formed per hour per milligram cell protein and the “cholesteryl … Repeat 1” value (0.06 uM compound) was 1.349 nanomoles formed per hour per milligram cell protein. For the same molecule, the “cholesteryl … Repeat 2” value (0.06 uM compound) was 2.23 nanomoles formed per hour per milligram cell protein, the “cholesteryl … Repeat 3” value (0.06 uM compound) was 3.728 nanomoles formed per hour per milligram cell protein and the “cholesteryl … Repeat 4” value (0.06 uM compound) was 1.926 nanomoles formed per hour per milligram cell protein. The “cholesteryl … Repeat 1” value (0.1 uM compound) was 1.053 nanomoles formed per hour per milligram cell protein, the “cholesteryl … Repeat 2” value (0.1 uM compound) was 0.9435 nanomoles formed per hour per milligram cell protein and the “cholesteryl … Repeat 3” value (0.1 uM compound) was 1.321 nanomoles formed per hour per milligram cell protein. The “cholesteryl … Repeat 4” value (0.1 uM compound) was 1.133 nanomoles formed per hour per milligram cell protein, the “cholesteryl … Repeat 1” value (0.3 uM compound) was 0.3641 nanomoles formed per hour per milligram cell protein and the “cholesteryl … Repeat 2” value (0.3 uM compound) was 0.3378 nanomoles formed per hour per milligram cell protein. For the same molecule, the “cholesteryl … Repeat 3” value (0.3 uM compound) was 0.05082 nanomoles formed per hour per milligram cell protein, the “cholesteryl … Repeat 4” value (0.3 uM compound) was 0.1455 nanomoles formed per hour per milligram cell protein and the IC50 (IC50 (concentration at which each compound inhibited cholesterol esterification by 50%), 10% FCS, 4 h then 2 h [14C] oleate pulse) was ~50 nM and 50 nM.
